Laboratory results published in patent US4665088A, “(E-Z)-4,5,9-trithiadodeca-1,6,11-triene 9-oxides” (The Research Foundation of State University of New York, priority 1984, dated 1987).
Like-named read-outs stand apart in the source and are kept apart here.

Tests used:
Type in all cases: cell-based
[1] = test system: ADP-induced platelet aggregation (platelet rich, citrated, human blood plasma); assay: Inhibition of ADP-induced aggregation of platelets in platelet rich, citrated human blood plasma; settings: ADP (10 μmole), read-out: ID50 (the source's name)
Text: Though the compounds of this invention have multiple uses such as for example as bacteriocides and fungicides, a particularly important utility is as an antithrombotic agent. Various chemicals are known to cause blood platelets to aggregate which in turn can result in blood clots in the blood circulatory system of living systems. Certain other compounds are known to prevent blood platelet aggregation and accordingly are known herein as antithrombotic agents, while other compounds prevent clotting of aggregated platelets and are called anticoagulants. Both are used in the treatment of phlebitis, stroke, coronary thrombosis and arteriosclerosis. […] The effectiveness of the suspected antithrombotic is compared to a control which has been treated with the agonist but which has not been treated with the antithrombotic and a quantitative measure of effectiveness is determined by ascertaining the concentration of suspected antithrombotic necessary to reduce by 50% the extent of platelet aggregation compared to the control. […]
Platelet rich, citrated, human blood plasma (250,000 platelets/μL) was prepared and divided into 0.45 ml. aliquots for use in determining ID50 levels of the subject compounds. The aliquots were treated with various quantities of (E)-ajoene, (Z)-ajoene, mixed (E,Z)-ajoene and mixed (E,Z)-ajoene together with prostacyclin and indomethacin. […]

[2] = test system: collagen-induced platelet aggregation (platelet rich, citrated, human blood plasma); assay: Inhibition of collagen-induced aggregation of platelets in platelet rich, citrated human blood plasma
Text: (§1) Though the compounds of this invention have multiple uses such as for example as bacteriocides and fungicides, a particularly important utility is as an antithrombotic agent. Various chemicals are known to cause blood platelets to aggregate which in turn can result in blood clots in the blood circulatory system of living systems. Certain other compounds are known to prevent blood platelet aggregation and accordingly are known herein as antithrombotic agents, while other compounds prevent clotting of aggregated platelets and are called anticoagulants. Both are used in the treatment of phlebitis, stroke, coronary thrombosis and arteriosclerosis. In a typical test to determine antithrombotic activity, the suspected antithrombotic chemical is mixed with a suspension of blood platelets, incubated for a few minutes, and then the suspension is treated with a known amount of a known agonist (agent inducing aggregation). The effectiveness of the suspected antithrombotic is compared to a control which has been treated with the agonist but which has not been treated with the antithrombotic and a quantitative measure of effectiveness is determined by ascertaining the concentration of suspected antithrombotic necessary to reduce by 50% the extent of platelet aggregation compared to the control. This measurement is termed the ID50 of the antithrombotic. Typical agonists include collagen and ADP (adenosine diphosphate).
Platelet rich, citrated, human blood plasma (250,000 platelets/μL) was prepared and divided into 0.45 ml. aliquots for use in determining ID50 levels of the subject compounds. The aliquots were treated with various quantities of (E)-ajoene, (Z)-ajoene, mixed (E,Z)-ajoene and mixed (E,Z)-ajoene together with prostacyclin and indomethacin. A control was maintained free of antithrombotic. The thus treated aliquots were pre-incubated by maintaining in an aggregometer cuvette for 2 minutes at 37° C. with stirring (950 RPM). Each aliquot was then further treated with an appropriate amount of ADP (10 μmole) or collagen (1 μg/ml or 2 μg/ml). Aggregation in each aliquot was monitored for a period of 3-5 minutes and percentage aggregation was quantitated by a dual channel aggregometer which ascertained percent aggregation by comparison against a control of light transmittance through the sample.

platelet aggregation = assay: Antithrombotic/anticoagulant activity (general statement); settings: for antithrombotic activity when combined with the compounds of the invention: combined with the compounds of the instant claimed invention
Text: as §1

[3] = COLLAGEN (2 μg/ml), read-out: ID50 (the source's name)
[4] = COLLAGEN (1 μg/ml), (E,Z)-ajoene 70:30 together with Prostacyclin (aliquot 5), read-out: ID50 (the source's name)
[5] = COLLAGEN (1 μg/ml), antithrombotic alone, read-out: ID50 (the source's name)

For C=CCSS/C=C/C[S+]([O-])CC=C (stereo not shown) [(E)-ajoene], which IC50 [1] is on record?
The IC50 was 213 µM.

What about the IC50 [2, 3] of the same compound?
The IC50 was 243 ± 90 µM.

What does the source list for C=CCSSC=CC[S+]([O-])CC=C (stereo not shown) [(E,Z)-ajoene, (E,Z)-4,5,9-trithiadodeca-1,6,11-triene 9-oxide]?
antithrombotic activity (platelet aggregation): significant antithrombotic activity; IC50 ([2]; COLLAGEN (1 μg/ml), (E,Z)-ajoene 70:30 together with Indomethacin (aliquot 7), read-out: ID50 (the source's name)): 4.5 µM; IC50 [2, 4]: 2.3 µM; IC50 [2, 5]: 92 µM

How did the IC50 [1] turn out when C=CCSS/C=C\C[S+]([O-])CC=C (stereo not shown) [(Z)-ajoene] was run?
Its IC50 is 188 ± 38 µM.

What about the IC50 [2, 3] of the same compound?
The IC50 was 196 ± 64 µM.

COc1ccc2c(c1)c(CC(=O)O)c(C)n2C(=O)c1ccc(Cl)cc1 [Indomethacin, reference compound] was tested. Which “antithrombotic activity when combined with the compounds of the invention” value (platelet aggregation) did it give?
The value was “particularly enhanced antithrombotic activity”.

What about the IC50 ([2]; read-out: ID50) of the same compound?
Its IC50 is 0.2 µM.

Which results are given for CCCCC[C@H](O)/C=C/[C@@H]1[C@H]2C/C(=C/CCCC(=O)O)O[C@H]2C[C@H]1O [Prostacyclin, reference compound]?
antithrombotic activity when combined with the compounds of the invention (platelet aggregation): particularly enhanced antithrombotic activity; IC50 [2, 4]: 0.001 µM; IC50 [2, 5]: 0.001 µM
